Data on ten cell lines can be found in the supplement of paper PMC10307832.

What all share (assay): relative viability (nuclei count vs DMSO), 5 days (fraction); higher = more cells survive
Compound in the experiment “Omipalisib + Pemetrexed”: COc1ncc(-c2ccc3nccc(-c4ccnnc4)c3c2)cc1NS(=O)(=O)c1ccc(F)cc1F [Omipalisib] + Nc1nc2[nH]cc(CCc3ccc(C(=O)N[C@@H](CCC(=O)O)C(=O)O)cc3)c2c(=O)[nH]1 [Pemetrexed] (partner 0.2 µM)
Summed up: (§1)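 Dosing by pin tool came one day after lung cancer cell lines were seeded in 1536-well plates, using either one drug or a fixed anchor-drug dose plus five library-drug doses (not always all listed) in √10 steps. After 5 days, nuclei were counted on 4× images. Relative viability is treated-well nuclei count divided by vehicle-well nuclei count, and values are medians of duplicate plates.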

Compound in the experiment “Omipalisib + Tozasertib”: COc1ncc(-c2ccc3nccc(-c4ccnnc4)c3c2)cc1NS(=O)(=O)c1ccc(F)cc1F [Omipalisib] + Cc1cc(Nc2cc(N3CCN(C)CC3)nc(Sc3ccc(NC(=O)C4CC4)cc3)n2)n[nH]1 [Tozasertib] (partner 0.1 µM)
Summed up:
as §1

Compound in the experiment “Omipalisib + Crizotinib”: COc1ncc(-c2ccc3nccc(-c4ccnnc4)c3c2)cc1NS(=O)(=O)c1ccc(F)cc1F [Omipalisib] + C[C@@H](Oc1cc(-c2cnn(C3CCNCC3)c2)cnc1N)c1c(Cl)ccc(F)c1Cl [Crizotinib] (partner 1 µM)
Summed up: as §1

Compound in the experiment “Omipalisib + Olaparib”: COc1ncc(-c2ccc3nccc(-c4ccnnc4)c3c2)cc1NS(=O)(=O)c1ccc(F)cc1F [Omipalisib] + O=C(c1cc(Cc2n[nH]c(=O)c3ccccc23)ccc1F)N1CCN(C(=O)C2CC2)CC1 [Olaparib] (partner 8 µM)
Summed up:
as §1

Compound in the experiment “Omipalisib + Navitoclax”: COc1ncc(-c2ccc3nccc(-c4ccnnc4)c3c2)cc1NS(=O)(=O)c1ccc(F)cc1F [Omipalisib] + CC1(C)CCC(c2ccc(Cl)cc2)=C(CN2CCN(c3ccc(C(=O)NS(=O)(=O)c4ccc(N[C@H](CCN5CCOCC5)CSc5ccccc5)c(S(=O)(=O)C(F)(F)F)c4)cc3)CC2)C1 [Navitoclax] (partner 0.5 µM)
Summed up: as §1

Compound in the experiment “Omipalisib + AZD7762”: COc1ncc(-c2ccc3nccc(-c4ccnnc4)c3c2)cc1NS(=O)(=O)c1ccc(F)cc1F [Omipalisib] + NC(=O)Nc1cc(-c2cccc(F)c2)sc1C(=O)N[C@H]1CCCNC1 [AZD7762] (partner 0.2 µM)
Summed up:
as §1

UMC-11: the relative viability in the experiment with Omipalisib + Pemetrexed (first compound 0.0003 µM) amounted to 0.717; in the experiment with Omipalisib + Pemetrexed (first compound 0.003 µM), 0.63; in the experiment with Omipalisib + Pemetrexed (first compound 0.03 µM) it was 0.648; with Omipalisib + Tozasertib (first compound 0.0003 µM), 0.217; in the experiment with Omipalisib + Tozasertib (first compound 0.003 µM) it was 0.209; in the experiment with Omipalisib + Tozasertib (first compound 0.03 µM), 0.22. Also, the relative viability with Omipalisib + Crizotinib (first compound 0.0003 µM) was 0.491; in the experiment with Omipalisib + Crizotinib (first compound 0.003 µM), 0.588; with Omipalisib + Crizotinib (first compound 0.03 µM) it was 0.434; in the experiment with Omipalisib + Olaparib (first compound 0.0003 µM), 0.332; with Omipalisib + Olaparib (first compound 0.003 µM) it was 0.548; with Omipalisib + Olaparib (first compound 0.03 µM), 0.376. Moreover, the relative viability was determined as 0.31 with Omipalisib + Navitoclax (first compound 0.0003 µM), 0.277 with Omipalisib + Navitoclax (first compound 0.003 µM) and 0.265 with Omipalisib + Navitoclax (first compound 0.03 µM).

Consider NCI-H727, for which the relative viability stood at 0.666 in the experiment with Omipalisib + Tozasertib (first compound 0.0003 µM); 0.623 in the experiment with Omipalisib + Tozasertib (first compound 0.003 µM); 0.378 with Omipalisib + Tozasertib (first compound 0.03 µM); 0.707 with Omipalisib + Crizotinib (first compound 0.0003 µM); 0.649 with Omipalisib + Crizotinib (first compound 0.003 µM); 0.391 in the experiment with Omipalisib + Crizotinib (first compound 0.03 µM). In addition, the relative viability stood at 0.754 with Omipalisib + Olaparib (first compound 0.0003 µM); 0.612 in the experiment with Omipalisib + Olaparib (first compound 0.003 µM); 0.598 in the experiment with Omipalisib + Olaparib (first compound 0.03 µM); 0.627 with Omipalisib + AZD7762 (first compound 0.0003 µM); 0.486 with Omipalisib + AZD7762 (first compound 0.003 µM); 0.412 with Omipalisib + AZD7762 (first compound 0.03 µM). Also, the relative viability came out at 0.458 with Omipalisib + Navitoclax (first compound 0.0003 µM), 0.229 with Omipalisib + Navitoclax (first compound 0.003 µM) and 0.152 with Omipalisib + Navitoclax (first compound 0.03 µM).

For NCI-H2009, the relative viability with Omipalisib + Pemetrexed (first compound 0.0003 µM) is 1.04; with Omipalisib + Pemetrexed (first compound 0.003 µM), 1.15; in the experiment with Omipalisib + Pemetrexed (first compound 0.03 µM), 0.892; with Omipalisib + Tozasertib (first compound 0.0003 µM) it was 0.796; with Omipalisib + Tozasertib (first compound 0.003 µM), 0.674; with Omipalisib + Tozasertib (first compound 0.03 µM), 0.607. Moreover, the relative viability with Omipalisib + Crizotinib (first compound 0.0003 µM) came to 0.989; with Omipalisib + Crizotinib (first compound 0.003 µM) it was 0.923; in the experiment with Omipalisib + Crizotinib (first compound 0.03 µM), 0.742; with Omipalisib + Olaparib (first compound 0.0003 µM), 0.705; in the experiment with Omipalisib + Olaparib (first compound 0.003 µM), 0.511; with Omipalisib + Olaparib (first compound 0.03 µM) it was 0.378. In addition, the relative viability with Omipalisib + Navitoclax (first compound 0.0003 µM) was 1.22; in the experiment with Omipalisib + Navitoclax (first compound 0.003 µM), 1.14; with Omipalisib + Navitoclax (first compound 0.03 µM), 0.897.

Regarding COR-L 105, the relative viability in the experiment with Omipalisib + Pemetrexed (first compound 0.0003 µM) came out at 0.995; with Omipalisib + Pemetrexed (first compound 0.003 µM), 1.11; in the experiment with Omipalisib + Pemetrexed (first compound 0.03 µM), 0.942; with Omipalisib + Tozasertib (first compound 0.0003 µM), 0.356; with Omipalisib + Tozasertib (first compound 0.003 µM), 0.359; in the experiment with Omipalisib + Tozasertib (first compound 0.03 µM), 0.316. Moreover, the relative viability in the experiment with Omipalisib + Crizotinib (first compound 0.0003 µM) was found to be 0.799; with Omipalisib + Crizotinib (first compound 0.003 µM) it was 0.779; in the experiment with Omipalisib + Crizotinib (first compound 0.03 µM), 0.558; with Omipalisib + Olaparib (first compound 0.0003 µM), 0.596; in the experiment with Omipalisib + Olaparib (first compound 0.003 µM) it was 0.708; with Omipalisib + Olaparib (first compound 0.03 µM), 0.569. Moreover, the relative viability was determined as 0.701 with Omipalisib + Navitoclax (first compound 0.0003 µM), 0.714 with Omipalisib + Navitoclax (first compound 0.003 µM) and 0.434 in the experiment with Omipalisib + Navitoclax (first compound 0.03 µM).

Turning to NCI-H650, the relative viability with Omipalisib + Pemetrexed (first compound 0.0003 µM) worked out at 0.903; in the experiment with Omipalisib + Pemetrexed (first compound 0.003 µM) it was 0.634; with Omipalisib + Pemetrexed (first compound 0.03 µM), 0.453; with Omipalisib + Tozasertib (first compound 0.0003 µM) it was 0.665; with Omipalisib + Tozasertib (first compound 0.003 µM), 0.608; with Omipalisib + Tozasertib (first compound 0.03 µM), 0.396. Moreover, the relative viability is 0.671 with Omipalisib + Crizotinib (first compound 0.0003 µM); 0.472 in the experiment with Omipalisib + Crizotinib (first compound 0.003 µM); 0.338 with Omipalisib + Crizotinib (first compound 0.03 µM); 0.366 in the experiment with Omipalisib + Olaparib (first compound 0.0003 µM); 0.33 with Omipalisib + Olaparib (first compound 0.003 µM); 0.245 in the experiment with Omipalisib + Olaparib (first compound 0.03 µM). The relative viability was determined as 0.817 in the experiment with Omipalisib + AZD7762 (first compound 0.0003 µM), 0.766 with Omipalisib + AZD7762 (first compound 0.003 µM) and 0.7 with Omipalisib + AZD7762 (first compound 0.03 µM).

As to COR-L23, the relative viability with Omipalisib + Pemetrexed (first compound 0.0003 µM) came out at 0.2; in the experiment with Omipalisib + Pemetrexed (first compound 0.003 µM) it was 0.2; in the experiment with Omipalisib + Pemetrexed (first compound 0.03 µM) it was 0.197; with Omipalisib + Tozasertib (first compound 0.0003 µM), 0.209; with Omipalisib + Tozasertib (first compound 0.003 µM), 0.21; with Omipalisib + Tozasertib (first compound 0.03 µM), 0.159. The relative viability in the experiment with Omipalisib + Crizotinib (first compound 0.0003 µM) amounted to 0.794; in the experiment with Omipalisib + Crizotinib (first compound 0.003 µM), 0.667; with Omipalisib + Crizotinib (first compound 0.03 µM) it was 0.292; with Omipalisib + Olaparib (first compound 0.0003 µM), 0.34; with Omipalisib + Olaparib (first compound 0.003 µM) it was 0.301; in the experiment with Omipalisib + Olaparib (first compound 0.03 µM), 0.265. For the same cell line, the relative viability stood at 1.15 in the experiment with Omipalisib + Navitoclax (first compound 0.0003 µM), 0.778 with Omipalisib + Navitoclax (first compound 0.003 µM) and 0.432 in the experiment with Omipalisib + Navitoclax (first compound 0.03 µM).

NCI-H1650: the relative viability in the experiment with Omipalisib + Pemetrexed (first compound 0.0003 µM) is 0.37; in the experiment with Omipalisib + Pemetrexed (first compound 0.003 µM), 0.38; with Omipalisib + Pemetrexed (first compound 0.03 µM), 0.322; in the experiment with Omipalisib + Tozasertib (first compound 0.0003 µM) it was 0.401; with Omipalisib + Tozasertib (first compound 0.003 µM), 0.375; with Omipalisib + Tozasertib (first compound 0.03 µM), 0.312. The relative viability was 0.794 with Omipalisib + Crizotinib (first compound 0.0003 µM); 1.16 in the experiment with Omipalisib + Crizotinib (first compound 0.003 µM); 0.717 with Omipalisib + Crizotinib (first compound 0.03 µM); 0.774 in the experiment with Omipalisib + Olaparib (first compound 0.0003 µM); 0.807 in the experiment with Omipalisib + Olaparib (first compound 0.003 µM); 0.576 with Omipalisib + Olaparib (first compound 0.03 µM). Moreover, the relative viability was 1.18 in the experiment with Omipalisib + Navitoclax (first compound 0.0003 µM), 1.05 with Omipalisib + Navitoclax (first compound 0.003 µM) and 0.409 in the experiment with Omipalisib + Navitoclax (first compound 0.03 µM).

With SK-LU-1, the relative viability with Omipalisib + Pemetrexed (first compound 0.0003 µM) is 1.04; with Omipalisib + Pemetrexed (first compound 0.003 µM) it was 0.834; with Omipalisib + Pemetrexed (first compound 0.03 µM) it was 0.751; with Omipalisib + Tozasertib (first compound 0.0003 µM) it was 0.339; with Omipalisib + Tozasertib (first compound 0.003 µM) it was 0.301; with Omipalisib + Tozasertib (first compound 0.03 µM) it was 0.237. In addition, the relative viability came to 0.91 in the experiment with Omipalisib + Crizotinib (first compound 0.0003 µM); 0.712 with Omipalisib + Crizotinib (first compound 0.003 µM); 0.515 with Omipalisib + Crizotinib (first compound 0.03 µM); 0.455 with Omipalisib + Olaparib (first compound 0.0003 µM); 0.304 in the experiment with Omipalisib + Olaparib (first compound 0.003 µM); 0.366 with Omipalisib + Olaparib (first compound 0.03 µM). Moreover, the results for the relative viability with Omipalisib + Navitoclax (first compound 0.0003 µM), with Omipalisib + Navitoclax (first compound 0.003 µM) and with Omipalisib + Navitoclax (first compound 0.03 µM) were 0.926, 0.237 and 0.625, respectively.

Turning to NCI-H2023, the relative viability in the experiment with Omipalisib + Pemetrexed (first compound 0.0003 µM) is 0.208; with Omipalisib + Pemetrexed (first compound 0.003 µM), 0.197; in the experiment with Omipalisib + Pemetrexed (first compound 0.03 µM), 0.139; with Omipalisib + Tozasertib (first compound 0.0003 µM) it was 0.309; with Omipalisib + Tozasertib (first compound 0.003 µM), 0.282; with Omipalisib + Tozasertib (first compound 0.03 µM), 0.151. Further, the relative viability with Omipalisib + Crizotinib (first compound 0.0003 µM) worked out at 0.569; with Omipalisib + Crizotinib (first compound 0.003 µM), 0.407; with Omipalisib + Crizotinib (first compound 0.03 µM) it was 0.18; in the experiment with Omipalisib + Olaparib (first compound 0.0003 µM) it was 0.428; with Omipalisib + Olaparib (first compound 0.003 µM), 0.414; with Omipalisib + Olaparib (first compound 0.03 µM) it was 0.185. The relative viability was 0.959 with Omipalisib + Navitoclax (first compound 0.0003 µM), 0.633 with Omipalisib + Navitoclax (first compound 0.003 µM) and 0.313 with Omipalisib + Navitoclax (first compound 0.03 µM).

As for SW 900, the relative viability with Omipalisib + Pemetrexed (first compound 0.0003 µM) worked out at 0.508; with Omipalisib + Pemetrexed (first compound 0.003 µM), 0.456; in the experiment with Omipalisib + Pemetrexed (first compound 0.03 µM) it was 0.487; with Omipalisib + Tozasertib (first compound 0.0003 µM) it was 0.556; in the experiment with Omipalisib + Tozasertib (first compound 0.003 µM), 0.562; in the experiment with Omipalisib + Tozasertib (first compound 0.03 µM), 0.423. For the same cell line, the relative viability with Omipalisib + Olaparib (first compound 0.0003 µM) amounted to 0.862; with Omipalisib + Olaparib (first compound 0.003 µM), 0.544; with Omipalisib + Olaparib (first compound 0.03 µM) it was 0.417; in the experiment with Omipalisib + AZD7762 (first compound 0.0003 µM), 0.748; with Omipalisib + AZD7762 (first compound 0.003 µM), 0.381; in the experiment with Omipalisib + AZD7762 (first compound 0.03 µM) it was 0.342.
